Laboratory results published in US9822137B2, “Phosphonucleosides useful in the treatment of viral disorders” (UNIVERSITY COLLEGE CORK, priority 2012, dated 2017).
≈ marks a conversion by molar mass, not a printed value. Counter-ions that a name gives are not always drawn. Like-named read-outs stand apart in the source and are kept apart here.

What was measured:
[1] = biological target: HIV-1 reverse transcriptase (Human immunodeficiency virus type 1 group M subtype B, UniProt P04585); experiment: cell-free HIV-1 RT assay with artificial homopolymeric template/primer and [3H]dNTP; format: biochemical; conditions: for inhibition of incorporation of [3H]dATP in poly rU/oligo dA / inhibition of incorporation of [3H]dCTP in poly rI/oligo dC: 11a and 11b at 200 μg/mL
Procedure: To prepare the template/primers for the RT experiments, 0.15 mM poly(U), poly(A), and poly(I) were mixed with an equal volume of 0.0375 mM oligo(dA), oligo(dT), and oligo(dC), respectively. The final concentrations of the templates in the RT reaction mixture were 0.015 mM. The reaction mixture (50 μl) contained 50 mM Tris.HCl (pH 7.8), 5 mM dithiothreitol, 300 mM glutathione, 500 μM EDTA, 150 mM KCl, 5 mM MgCl2, 1.25 μg of bovine serum albumin, an appropriate concentration of labeled (tritiated) substrate dTTP, dCTP, or dATP (2 μCi/assay), a fixed concentration of the template/primer poly(A).oligo(dT) (0.015 mM), poly(I).oligo(dC) (0.015 mM), and poly(U).oligo(dA) (0.015 mM), 0.06% Triton X-100, 10 μl of inhibitor solution (containing various concentrations of the compounds), and 1 μl of the RT preparation. The reaction mixtures were incubated at 37° C. for 30 min, at which time 100 μl of yeast RNA (1 mg/ml) and 1 ml of Na4P2O7 (0.02 M) in trichloroacetic acid (5% v/v) were added. The solutions were kept on ice for 30 min, after which the acid-insoluble material was washed and analyzed for radioactivity.

[2] = chemical stability on storage / in solution; format: physicochemical
HIV-RT = HIV-RT (Human immunodeficiency virus type 1 group M subtype B, UniProt P04585); conditions: cell-free HIV-RT assay, literature, not a direct comparison; cited from earlier work
[3] = substrate [3H]dATP, template/primer poly rU.oligo dA, read-out: IC50, HIV-RT catalysed incorporation of [3H]dATP / polyrU.dA (converted)
[4] = substrate [3H]dCTP, template/primer poly rI.oligo dC, read-out: IC50, HIV-RT catalysed incorporation of [3H]dCTP / polyrI.dC (converted)
[5] = substrate [3H]dTTP, template/primer poly rA.oligo dT, read-out: IC50, HIV-RT catalysed incorporation of [3H]dTTP / polyrA.dT (converted)
[6] = IC50, HIV-RT catalysed incorporation of [3H]dATP / polyrU.dA, substrate [3H]dATP, template/primer poly rU.oligo dA
[7] = IC50, HIV-RT catalysed incorporation of [3H]dCTP / polyrI.dC, substrate [3H]dCTP, template/primer poly rI.oligo dC
[8] = IC50, HIV-RT catalysed incorporation of [3H]dTTP / polyrA.dT, substrate [3H]dTTP, template/primer poly rA.oligo dT

| Structure (SMILES) | melting point [°C] | IC50 [1, 3] [µM] | IC50 [1, 4] [µM] | IC50 [1, 5] [µM] | further results |
| --- | --- | --- | --- | --- | --- |
| O=C(O)C(OC1CCC(n2cc(F)c(=O)[nH]c2=O)C1)P(=O)(O)O (stereo not drawn) (as salt: ammonium) [Compound 41, 2-((3-(5-fluoro-2,4-dioxo-3,4-dihydropyrimidin-1(2H)-yl)cyclopentyl)oxy)-2-phosphonoacetic acid] | 243 |  |  |  |  |
| Cc1cn([C@@H]2CC[C@H](OC(C(=O)O)P(=O)(O)O)C2)c(=O)[nH]c1=O (relative stereo) (as salt: ammonium) [Compound 11a, cis-1-{4-[Carboxy(phosphono)methoxy]cyclopentan-1-yl}thymine] | 228 to 230 |  |  |  |  |
| Nc1ncnc2c1ncn2[C@@H]1CC[C@H](OC(C(=O)O)P(=O)(O)O)C1 (relative stereo) (as salt: ammonium) [Compound 11d, cis-9-{4-[Carboxy(phosphono)methoxy]cyclopentan-1-yl}adenine] | 236 to 240 |  |  |  |  |
| COC(=O)C(O[C@H]1CC[C@@H](n2cc(C)c(=O)[nH]c2=O)C1)P(=O)(OC)OC (relative stereo) [26a] | 130 to 133 |  |  |  |  |
| Cc1cn([C@@H]2CC[C@H](OC(C(=O)O)P(=O)(O)O)C2)c(=O)[nH]c1=O (relative stereo) [Compound 11a, cis-1-{4-[Carboxy(phosphono)methoxy]cyclopentan-1-yl}thymine] |  | 307 | > 574 | 0.431 | inhibition of incorporation of [3H]dATP in poly rU/oligo dA [1]: no marked, if any inhibition; inhibition of incorporation of [3H]dCTP in poly rI/oligo dC [1]: no marked, if any inhibition |
| O=C(O)C(O[C@H]1CC[C@@H](n2ccc(=O)[nH]c2=O)C1)P(=O)(O)O (relative stereo) [Compound 11b, cis-1-{4-[Carboxy(phosphono)methoxy]cyclopentan-1-yl}uracil] |  | 221 | > 598 | 3.89 | inhibition of incorporation of [3H]dATP in poly rU/oligo dA [1]: no marked, if any inhibition; inhibition of incorporation of [3H]dCTP in poly rI/oligo dC [1]: no marked, if any inhibition |
| Nc1ccn([C@@H]2CC[C@H](OC(C(=O)O)P(=O)(O)O)C2)c(=O)n1 (relative stereo) [Compound 11c, cis-1-{4-[Carboxy(phosphono)methoxy]cyclopentan-1-yl}cytosine] | > 250 | 108 | 4.8 | 231 |  |
| Nc1ncnc2c1ncn2[C@@H]1CC[C@H](OC(C(=O)O)P(=O)(O)O)C1 (relative stereo) [Compound 11d, cis-9-{4-[Carboxy(phosphono)methoxy]cyclopentan-1-yl}adenine] |  |  |  |  | IC50 [1, 6]: 0.274 µM; IC50 [1, 7]: > 560 µM; IC50 [1, 8]: ≥ 560 µM; inhibition of incorporation of [3H]dATP in poly rU/oligo dA [1]: potent inhibitor; degradation of stored sample ([2]; sample checked after 1 year): ~10% |
| COC(=O)C(O[C@H]1C=C[C@@H](n2ccc(N)nc2=O)C1)P(=O)(OC)OC (relative stereo) [Compound 24c, cis-1-{4-[(Methoxycarbonyl)dimethylphosphonomethoxy]cyclopent-2-en-1-yl}cytosine] |  |  |  |  | stability in deuterated chloroform ([2]; 36 hours at room temperature): Significant decomposition |
| COC(=O)C(O[C@H]1CC[C@@H](n2ccc(=O)[nH]c2=O)C1)P(=O)(OC)OC (relative stereo) [Compound 26b, cis-1-{4-[(methoxycarbonyl)dimethylphosphonomethoxy]cyclopentan-1-yl}uracil] |  |  |  |  | stability on storage at room temperature ([2]; room temperature, extended periods, neat, solid or in solution): no noticeable decomposition; purity by 1H NMR of aged sample ([2]; sample approximately 2 years old, stored at room temperature): 95% |
| COC(=O)C(O[C@H]1CC[C@@H](n2ccc(N)nc2=O)C1)P(=O)(OC)OC (relative stereo) [Compound 26c, cis-1-{4-[(Methoxycarbonyl)dimethylphosphonomethoxy]cyclopentan-1-yl}cytosine] |  |  |  |  | stability in deuterated chloroform ([2]; 16 hours at room temperature): Significant decomposition |
| COC(=O)C(O[C@H]1CC[C@@H](n2cnc3nc(N)nc(Cl)c32)C1)P(=O)(OC)OC (relative stereo) [Compound N-7-26e, cis-2-Amino-7-{4-[(methoxycarbonyl)dimethylphosphonornethoxy]cyclopentan-1-yl}-6-chloropurine] |  |  |  |  | stability in solution ([2]; within 4 days in solution): significant decomposition |
| Cc1cn([C@H]2CC[C@@H](OC(C(=O)O)P(=O)(O)O)C2)c(=O)[nH]c1=O (single isomer, unassigned; (+)) (as salt: ammonium) [(+)-11a] | 225 to 227 |  |  |  |  |
| Nc1ncnc2c1ncn2[C@H]1CC[C@@H](OC(C(=O)O)P(=O)(O)O)C1 (single isomer, unassigned; (+)) (as salt: ammonium) [(+)-11d] | 234 to 239 |  |  |  |  |
| COC(=O)C(O[C@H]1CC[C@@H](n2cc(C)c(=O)[nH]c2=O)C1)P(=O)(OC)OC (single isomer, unassigned; (+)) [(+)26a] | 129 to 130 |  |  |  |  |
| Cc1cn([C@H]2CC[C@@H](OC(C(=O)O)P(=O)(O)O)C2)c(=O)[nH]c1=O (single isomer, unassigned; (+)) [(+)-11a] |  | 101 | > 574 | 37.3 |  |
| O=C(O)C(O[C@@H]1CC[C@H](n2ccc(=O)[nH]c2=O)C1)P(=O)(O)O (single isomer, unassigned; (+)) [(+)-11b] |  | 168 | > 598 | 120 |  |
| Nc1ccn([C@H]2CC[C@@H](OC(C(=O)O)P(=O)(O)O)C2)c(=O)n1 (single isomer, unassigned; (+)) [(+)-11c] | > 250 | 54 | 402 | 23.4 |  |
| Nc1ncnc2c1ncn2[C@H]1CC[C@@H](OC(C(=O)O)P(=O)(O)O)C1 (single isomer, unassigned; (+)) [(+)-11d] |  | 33.6 | > 560 | 487 |  |
| Cc1cn([C@@H]2CC[C@H](OC(C(=O)O)P(=O)(O)O)C2)c(=O)[nH]c1=O (single isomer, unassigned; (-)) (as salt: ammonium) [(−)-11a] | 229 to 230 |  |  |  |  |
| Nc1ncnc2c1ncn2[C@@H]1CC[C@H](OC(C(=O)O)P(=O)(O)O)C1 (single isomer, unassigned; (-)) (as salt: ammonium) [(−)-11d] | 237 to 241 |  |  |  |  |
| COC(=O)C(O[C@@H]1CC[C@H](n2cc(C)c(=O)[nH]c2=O)C1)P(=O)(OC)OC (single isomer, unassigned; (-)) [(−)26a] | 133 to 135 |  |  |  |  |
| Cc1cn([C@@H]2CC[C@H](OC(C(=O)O)P(=O)(O)O)C2)c(=O)[nH]c1=O (single isomer, unassigned; (-)) [(−)-11a] |  |  |  |  | IC50 [1, 6]: 167 µM; IC50 [1, 7]: > 574 µM; IC50 [1, 8]: 0.431 µM; inhibition of HIV-1-RT-catalysed incorporation of [3H]dTTP in poly rA/oligo dT [1]: potent inhibitory activity |
| O=C(O)C(O[C@H]1CC[C@@H](n2ccc(=O)[nH]c2=O)C1)P(=O)(O)O (single isomer, unassigned; (-)) [(−)-11b] |  | 233 | > 598 | 3.29 | inhibition of HIV-1-RT-catalysed incorporation of [3H]dTTP in poly rA/oligo dT [1]: potent inhibitory activity |
| Nc1ccn([C@@H]2CC[C@H](OC(C(=O)O)P(=O)(O)O)C2)c(=O)n1 (single isomer, unassigned; (-)) [(−)-11c] |  | 51 | 4.5 | 180 | inhibition of incorporation of [3H]dCTP in poly rI/oligo dC [1]: strong inhibition |
| Nc1ncnc2c1ncn2[C@@H]1CC[C@H](OC(C(=O)O)P(=O)(O)O)C1 (single isomer, unassigned; (-)) [(−)-11d] |  | 0.202 | > 560 | > 560 |  |
| Cc1cn([C@H]2C[C@H](N=[N+]=[N-])[C@@H](COP(=O)(O)OP(=O)(O)OP(=O)(O)O)O2)c(=O)[nH]c1=O [AZT-TP, reference compound] |  |  |  |  | IC50, HIV-RT catalysed incorporation of [3H]dTTP / polyrA.dT ([1]; substrate [3H]dTTP, template/primer poly rA.oligo dT): 0.035 ± 0.016 µg/mL |
| Cc1cn([C@H]2C[C@H](N=[N+]=[N-])[C@@H](CO)O2)c(=O)[nH]c1=O [AZT] |  |  |  |  | IC50 anti-HIV-RT activity reported by McClure (HIV-RT): 0.1 µg/mL (≈ 0.374 µM) |
| Nc1ncnc2c1ncn2[C@H]1CC[C@@H](COP(=O)(O)OP(=O)(O)OP(=O)(O)O)O1 [ddATP, reference compound] |  |  |  |  | IC50, HIV-RT catalysed incorporation of [3H]dATP / polyrU.dA ([1]; substrate [3H]dATP, template/primer poly rU.oligo dA): 0.55 ± 0.09 µg/mL |
| Nc1ccn([C@H]2CC[C@@H](COP(=O)(O)OP(=O)(O)OP(=O)(O)O)O2)c(=O)n1 [ddCTP, reference compound] |  |  |  |  | IC50, HIV-RT catalysed incorporation of [3H]dCTP / polyrI.dC ([1]; substrate [3H]dCTP, template/primer poly rI.oligo dC): 5.0 ± 0.4 µg/mL |
